Values of other authors, collected in patent US20040071685A1, “Compositions and methods for increasing the bioavailability of plant polyphenols” (priority 2002, published 2004).

How the values were obtained:
[1] = adults
[2] = rats, 15 μM administered in the stomach in situ, after 30 minutes
[3] = rats, oral, 700 μM/kg body weight
[4] = tested on: alpha-glucosidase (invertase)

SMILES	amount remaining in the stomach [2] [µM]	volume of distribution [1]	other results
O=c1c(-c2ccc(O)cc2)coc2cc(O)ccc12 [daidzein]		large	
O=C(O)/C=C/c1ccc(O)c(O)c1 [caffeic acid]			maximum serum level of conjugates [3]: 0.64 µM; time of maximum serum levels [3]: 2 h
O=c1c(-c2ccc(O)cc2)coc2cc(O)cc(O)c12 [genistein]		large	type of inhibition [4]: reversible, slow-binding, non-competitive inhibitor
O=c1c(O[C@@H]2O[C@H](CO)[C@@H](O)[C@H](O)[C@H]2O)c(-c2ccc(O)c(O)c2)oc2cc(O)cc(O)c12 [isoquercitrin]	15		

Second part, led by results:

amount remaining in the stomach [2] [µM]	SMILES	volume of distribution [1]	other results
8.6	O=c1c(O)c(-c2ccc(O)c(O)c2)oc2cc(O)cc(O)c12 [quercetin]		amount found in the bile samples [2]: 4.1 µM
15	C[C@@H]1O[C@@H](OC[C@H]2O[C@@H](Oc3c(-c4ccc(O)c(O)c4)oc4cc(O)cc(O)c4c3=O)[C@H](O)[C@@H](O)[C@@H]2O)[C@H](O)[C@H](O)[C@H]1O [rutin]		
